Measurements from ChEMBL document CHEMBL1201862, “PubChem BioAssay data set” (2004).
Activity calls are given as the source filed them.

Tests used:
[1] = molecular target: Bifunctional protein GlmU (Mycobacterium tuberculosis, UniProt P9WMN3); assay: Inhibitors of Mycobacterial Glucosamine-1-phosphate acetyl transferase (GlmU). Secondary screen.; parameters: species or system Mycobacterium tuberculosis H37Rv
[2] = molecular target: T1, 1-phosphatidylinositol 4,5-bisphosphate phosphodiesterase beta-3 (Homo sapiens, UniProt Q01970); assay: Fluorescence-based biochemical high throughput dose response assay to identify inhibitors of phospholipase C isozymes (PLC-B3).
T1 sequence (Q01970 whole entry): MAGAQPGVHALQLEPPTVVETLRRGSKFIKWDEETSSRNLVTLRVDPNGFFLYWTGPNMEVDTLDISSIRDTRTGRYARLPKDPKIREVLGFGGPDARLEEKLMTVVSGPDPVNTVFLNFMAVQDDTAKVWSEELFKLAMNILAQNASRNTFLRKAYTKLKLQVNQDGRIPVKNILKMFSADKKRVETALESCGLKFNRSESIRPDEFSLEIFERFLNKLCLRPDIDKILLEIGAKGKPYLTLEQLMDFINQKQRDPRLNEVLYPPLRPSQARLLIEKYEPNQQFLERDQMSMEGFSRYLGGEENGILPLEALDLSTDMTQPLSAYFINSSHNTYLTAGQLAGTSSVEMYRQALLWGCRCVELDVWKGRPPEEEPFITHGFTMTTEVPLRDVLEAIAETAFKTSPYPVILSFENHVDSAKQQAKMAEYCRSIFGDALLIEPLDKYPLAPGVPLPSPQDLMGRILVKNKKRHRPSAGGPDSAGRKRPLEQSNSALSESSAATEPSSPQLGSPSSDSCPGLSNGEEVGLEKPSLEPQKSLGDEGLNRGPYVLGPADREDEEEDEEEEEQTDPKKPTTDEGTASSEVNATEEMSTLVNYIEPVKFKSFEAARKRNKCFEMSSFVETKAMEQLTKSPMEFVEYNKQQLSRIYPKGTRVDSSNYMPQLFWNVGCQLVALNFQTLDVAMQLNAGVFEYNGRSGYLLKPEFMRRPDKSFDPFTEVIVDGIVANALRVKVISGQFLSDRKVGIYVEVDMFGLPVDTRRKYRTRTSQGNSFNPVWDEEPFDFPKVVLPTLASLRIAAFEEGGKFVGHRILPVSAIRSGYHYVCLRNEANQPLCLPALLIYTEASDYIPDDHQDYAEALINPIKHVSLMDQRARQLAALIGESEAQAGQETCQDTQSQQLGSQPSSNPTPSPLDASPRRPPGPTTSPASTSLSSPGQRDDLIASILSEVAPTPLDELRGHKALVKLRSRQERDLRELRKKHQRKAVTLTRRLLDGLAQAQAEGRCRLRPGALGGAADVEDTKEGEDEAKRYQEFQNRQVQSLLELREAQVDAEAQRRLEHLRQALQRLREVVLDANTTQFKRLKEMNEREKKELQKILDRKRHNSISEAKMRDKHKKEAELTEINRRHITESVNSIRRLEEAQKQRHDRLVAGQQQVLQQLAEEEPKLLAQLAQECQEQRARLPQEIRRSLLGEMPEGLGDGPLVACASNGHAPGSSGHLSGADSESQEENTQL

[3] = molecular target: Dual specificity mitogen-activated protein kinase kinase 1 (Homo sapiens, UniProt Q02750); assay: Navigating the Kinome. Panel member name: MAP2K1; type: functional
Sequence of Dual specificity mitogen-activated protein kinase kinase 1 (Q02750 whole entry): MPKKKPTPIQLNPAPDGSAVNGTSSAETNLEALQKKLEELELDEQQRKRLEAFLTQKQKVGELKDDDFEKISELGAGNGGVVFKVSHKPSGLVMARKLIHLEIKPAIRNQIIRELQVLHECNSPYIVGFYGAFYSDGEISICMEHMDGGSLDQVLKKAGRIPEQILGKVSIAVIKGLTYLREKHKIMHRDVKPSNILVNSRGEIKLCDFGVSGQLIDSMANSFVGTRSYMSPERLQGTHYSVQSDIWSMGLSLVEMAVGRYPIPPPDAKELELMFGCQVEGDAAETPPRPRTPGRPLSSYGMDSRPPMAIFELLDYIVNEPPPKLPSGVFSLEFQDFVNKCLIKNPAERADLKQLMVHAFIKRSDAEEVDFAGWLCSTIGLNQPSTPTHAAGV

[4] = molecular target: RAC-gamma serine/threonine-protein kinase (Homo sapiens, UniProt Q9Y243); type: functional
Sequence of RAC-gamma serine/threonine-protein kinase (Q9Y243 whole entry): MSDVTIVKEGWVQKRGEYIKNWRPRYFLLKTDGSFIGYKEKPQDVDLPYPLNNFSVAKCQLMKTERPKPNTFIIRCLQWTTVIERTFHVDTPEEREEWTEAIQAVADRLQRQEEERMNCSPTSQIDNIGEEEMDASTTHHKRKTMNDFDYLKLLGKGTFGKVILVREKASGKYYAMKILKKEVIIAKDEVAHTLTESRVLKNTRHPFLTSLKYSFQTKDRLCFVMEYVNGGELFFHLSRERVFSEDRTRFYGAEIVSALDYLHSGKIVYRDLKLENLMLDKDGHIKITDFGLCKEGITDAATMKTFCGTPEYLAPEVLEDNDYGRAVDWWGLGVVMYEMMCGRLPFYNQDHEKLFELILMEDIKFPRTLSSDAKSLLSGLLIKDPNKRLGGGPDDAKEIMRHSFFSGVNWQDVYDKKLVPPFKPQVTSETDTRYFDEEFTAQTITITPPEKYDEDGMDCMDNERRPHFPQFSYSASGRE

[5] = molecular target: Serine/threonine-protein kinase D3 (Homo sapiens, UniProt O94806); type: functional;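 note: determined within a kinase panel screen, with PRKCN as the panel member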
Sequence of Serine/threonine-protein kinase D3 (O94806 whole entry): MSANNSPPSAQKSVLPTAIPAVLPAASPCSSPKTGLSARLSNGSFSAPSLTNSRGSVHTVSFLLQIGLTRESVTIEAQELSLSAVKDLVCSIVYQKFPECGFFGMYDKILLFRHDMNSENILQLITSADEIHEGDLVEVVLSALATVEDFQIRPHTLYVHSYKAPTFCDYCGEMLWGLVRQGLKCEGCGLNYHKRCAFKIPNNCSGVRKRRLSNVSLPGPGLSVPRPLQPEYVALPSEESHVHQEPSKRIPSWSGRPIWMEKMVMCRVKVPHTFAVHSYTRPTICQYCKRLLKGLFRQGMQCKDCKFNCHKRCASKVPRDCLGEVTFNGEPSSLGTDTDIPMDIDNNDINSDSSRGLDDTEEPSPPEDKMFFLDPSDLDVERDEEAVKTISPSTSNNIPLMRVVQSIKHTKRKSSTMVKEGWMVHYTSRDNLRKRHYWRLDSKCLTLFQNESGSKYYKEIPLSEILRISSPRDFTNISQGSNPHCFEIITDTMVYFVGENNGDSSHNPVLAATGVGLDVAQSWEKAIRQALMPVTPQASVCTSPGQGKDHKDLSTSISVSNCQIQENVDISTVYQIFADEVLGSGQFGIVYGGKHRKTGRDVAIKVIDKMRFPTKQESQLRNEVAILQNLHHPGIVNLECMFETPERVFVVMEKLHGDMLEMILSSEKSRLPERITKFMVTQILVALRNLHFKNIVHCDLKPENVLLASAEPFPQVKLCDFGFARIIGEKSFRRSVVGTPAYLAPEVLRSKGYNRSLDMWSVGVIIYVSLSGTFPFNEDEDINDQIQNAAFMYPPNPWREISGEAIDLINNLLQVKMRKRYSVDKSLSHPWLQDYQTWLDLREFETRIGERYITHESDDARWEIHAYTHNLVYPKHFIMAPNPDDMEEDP

[6] = molecular target: Mitogen-activated protein kinase 8 (Homo sapiens, UniProt P45983); type: functional;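 note: value comes from one member of a kinome-wide kinase profiling panel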
Aurora kinase A = Aurora kinase A (Homo sapiens, UniProt O14965); type: functional;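 note: value from the Navigating the Kinome kinase panel profiling, panel entry STK6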
Sequence of Aurora kinase A (O14965 whole entry): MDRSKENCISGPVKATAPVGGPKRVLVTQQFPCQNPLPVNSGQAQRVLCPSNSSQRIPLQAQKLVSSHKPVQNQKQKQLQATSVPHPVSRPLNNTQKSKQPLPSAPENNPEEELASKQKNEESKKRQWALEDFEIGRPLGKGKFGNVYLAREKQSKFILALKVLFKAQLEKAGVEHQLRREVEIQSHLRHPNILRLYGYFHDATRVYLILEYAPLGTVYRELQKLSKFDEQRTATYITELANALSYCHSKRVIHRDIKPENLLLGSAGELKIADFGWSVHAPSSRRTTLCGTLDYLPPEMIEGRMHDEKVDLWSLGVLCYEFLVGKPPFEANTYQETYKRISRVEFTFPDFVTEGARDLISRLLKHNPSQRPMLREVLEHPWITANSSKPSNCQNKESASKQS

[7] = molecular target: MAP kinase-activated protein kinase 2 (Homo sapiens, UniProt P49137); type: functional;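 note: measured as one member of a kinome-wide kinase panel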
Sequence of MAP kinase-activated protein kinase 2 (P49137 whole entry): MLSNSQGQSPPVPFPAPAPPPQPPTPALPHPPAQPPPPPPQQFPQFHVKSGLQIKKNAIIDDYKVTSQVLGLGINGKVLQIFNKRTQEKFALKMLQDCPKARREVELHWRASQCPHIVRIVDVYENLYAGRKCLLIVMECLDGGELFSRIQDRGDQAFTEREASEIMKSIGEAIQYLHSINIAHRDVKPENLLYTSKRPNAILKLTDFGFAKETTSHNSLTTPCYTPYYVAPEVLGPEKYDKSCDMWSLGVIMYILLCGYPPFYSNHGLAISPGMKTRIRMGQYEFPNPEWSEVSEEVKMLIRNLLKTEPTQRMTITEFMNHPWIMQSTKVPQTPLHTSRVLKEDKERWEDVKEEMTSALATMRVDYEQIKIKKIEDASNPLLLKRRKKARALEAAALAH

[8] = molecular target: Mast/stem cell growth factor receptor Kit (Homo sapiens, UniProt P10721); type: functional;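 note: KIT entry within a kinase panel assay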
[9] = molecular target: Serine/threonine-protein kinase TAO1 (Homo sapiens, UniProt Q7L7X3); type: functional
[10] = molecular target: Proto-oncogene tyrosine-protein kinase ROS (Homo sapiens, UniProt P08922); type: functional;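 note: ROS1 tested as one member of a kinome-wide kinase panel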
[11] = molecular target: Serine/threonine-protein kinase pim-3 (Homo sapiens, UniProt Q86V86); type: functional;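 note: value obtained as one member of a broad kinase panel profiling effort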
[12] = molecular target: Casein kinase I isoform delta (Homo sapiens, UniProt P48730); type: functional;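 note: measured as one member (CSNK1D) of a kinome panel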
[13] = molecular target: Tyrosine-protein kinase ABL1 (Homo sapiens, UniProt P00519); type: functional
[14] = molecular target: G protein-coupled receptor kinase 5 (Homo sapiens, UniProt P34947); assay: Navigating the Kinome. Panel member name: GPRK5; type: functional
[15] = molecular target: Insulin-like growth factor 1 receptor (Homo sapiens, UniProt P08069); assay: Navigating the Kinome. Panel member name: IGF1R; type: functional
[16] = molecular target: Serine/threonine-protein kinase Nek4 (Homo sapiens, UniProt P51957); type: functional
[17] = molecular target: Dual specificity tyrosine-phosphorylation-regulated kinase 4 (Homo sapiens, UniProt Q9NR20); type: functional
[18] = molecular target: Rho-associated protein kinase 1 (Homo sapiens, UniProt Q13464); type: functional;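 note: measured within a broad kinome-wide panel profiling many kinases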
[19] = molecular target: Serine/threonine-protein kinase DCLK1 (Homo sapiens, UniProt O15075); type: functional;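 note: affinity for DCLK1 (listed as DCAMKL1) measured as one member of a kinome-wide kinase profiling panel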
[20] = molecular target: BDNF/NT-3 growth factors receptor (Homo sapiens, UniProt Q16620); type: functional;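 note: NTRK2 measured as one member of a broad kinome-wide kinase profiling panel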
Sequence of BDNF/NT-3 growth factors receptor (Q16620 whole entry): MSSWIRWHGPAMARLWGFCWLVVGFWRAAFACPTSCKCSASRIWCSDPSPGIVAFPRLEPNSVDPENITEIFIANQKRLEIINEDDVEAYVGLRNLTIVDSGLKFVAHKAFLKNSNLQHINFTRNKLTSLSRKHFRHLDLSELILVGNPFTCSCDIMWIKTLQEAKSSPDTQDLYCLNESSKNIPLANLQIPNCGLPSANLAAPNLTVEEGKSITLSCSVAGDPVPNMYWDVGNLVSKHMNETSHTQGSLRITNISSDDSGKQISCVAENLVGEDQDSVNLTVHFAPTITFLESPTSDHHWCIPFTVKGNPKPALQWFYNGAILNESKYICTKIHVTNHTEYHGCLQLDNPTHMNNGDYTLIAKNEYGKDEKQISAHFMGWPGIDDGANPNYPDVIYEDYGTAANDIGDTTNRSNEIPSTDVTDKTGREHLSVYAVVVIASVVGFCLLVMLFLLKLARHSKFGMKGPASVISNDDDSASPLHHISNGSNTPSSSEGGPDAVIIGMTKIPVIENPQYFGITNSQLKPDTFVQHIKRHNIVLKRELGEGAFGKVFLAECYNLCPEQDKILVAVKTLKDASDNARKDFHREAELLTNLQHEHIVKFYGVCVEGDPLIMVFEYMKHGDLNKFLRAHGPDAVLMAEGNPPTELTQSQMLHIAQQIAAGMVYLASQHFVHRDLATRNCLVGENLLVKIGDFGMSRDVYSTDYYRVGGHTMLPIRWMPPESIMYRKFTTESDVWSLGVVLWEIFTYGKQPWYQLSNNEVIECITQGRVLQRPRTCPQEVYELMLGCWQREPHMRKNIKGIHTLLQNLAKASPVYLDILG

[21] = molecular target: Mitogen-activated protein kinase kinase kinase kinase 4 (Homo sapiens, UniProt O95819); type: functional
Sequence of Mitogen-activated protein kinase kinase kinase kinase 4 (O95819 whole entry): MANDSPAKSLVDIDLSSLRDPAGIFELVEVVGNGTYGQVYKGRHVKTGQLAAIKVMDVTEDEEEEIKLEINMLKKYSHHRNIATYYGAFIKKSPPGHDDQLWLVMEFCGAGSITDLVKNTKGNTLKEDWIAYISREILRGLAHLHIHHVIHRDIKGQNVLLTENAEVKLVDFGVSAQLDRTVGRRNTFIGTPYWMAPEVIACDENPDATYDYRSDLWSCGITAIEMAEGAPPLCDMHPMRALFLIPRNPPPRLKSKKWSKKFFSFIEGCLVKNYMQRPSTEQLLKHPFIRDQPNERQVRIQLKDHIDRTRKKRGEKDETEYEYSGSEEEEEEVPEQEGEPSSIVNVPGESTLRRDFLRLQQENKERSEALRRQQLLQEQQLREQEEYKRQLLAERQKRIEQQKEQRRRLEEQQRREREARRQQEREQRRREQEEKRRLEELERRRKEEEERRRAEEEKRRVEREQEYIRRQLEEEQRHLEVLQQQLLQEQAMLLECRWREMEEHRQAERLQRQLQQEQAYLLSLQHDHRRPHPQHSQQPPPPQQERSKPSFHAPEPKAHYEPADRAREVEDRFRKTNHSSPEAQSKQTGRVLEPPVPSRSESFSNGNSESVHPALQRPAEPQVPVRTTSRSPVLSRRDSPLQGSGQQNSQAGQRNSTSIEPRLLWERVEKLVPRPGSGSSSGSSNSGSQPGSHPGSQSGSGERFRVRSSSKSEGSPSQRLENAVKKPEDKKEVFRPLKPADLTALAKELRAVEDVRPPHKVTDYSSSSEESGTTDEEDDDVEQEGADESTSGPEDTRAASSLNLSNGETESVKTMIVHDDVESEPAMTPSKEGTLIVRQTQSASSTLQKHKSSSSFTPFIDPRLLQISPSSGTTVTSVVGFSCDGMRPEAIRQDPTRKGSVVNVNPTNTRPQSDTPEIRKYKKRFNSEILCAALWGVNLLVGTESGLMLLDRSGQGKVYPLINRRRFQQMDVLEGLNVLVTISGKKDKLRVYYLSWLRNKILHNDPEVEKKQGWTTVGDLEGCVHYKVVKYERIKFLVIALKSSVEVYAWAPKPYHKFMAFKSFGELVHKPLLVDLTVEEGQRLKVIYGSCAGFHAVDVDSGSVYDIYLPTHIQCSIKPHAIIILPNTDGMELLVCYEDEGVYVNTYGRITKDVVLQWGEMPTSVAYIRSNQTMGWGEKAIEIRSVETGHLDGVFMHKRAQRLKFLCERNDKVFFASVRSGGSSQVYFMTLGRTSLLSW

[22] = molecular target: Dual specificity tyrosine-phosphorylation-regulated kinase 1A (Homo sapiens, UniProt Q13627); type: functional;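 note: measured against DYRK1A as one member of a broad kinome profiling panel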
[23] = molecular target: Mitogen-activated protein kinase 14 (Homo sapiens, UniProt Q16539); type: functional;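 note: part of a kinome-wide panel, MAPK14 entry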

Cc1ccc(/C=C2/C(=O)c3ccc(C(=O)O)cc3C2=O)o1
active: IC50 [1] 174 µM
inactive: IC50 [2] > 122 µM

Clc1cc(NC2CCCCC2)nc(-c2c[nH]c3ncccc23)n1
inactive: Ki [4] > 10 µM | Ki [5] > 2.51 µM | Ki (Aurora kinase A) > 1.58 µM | Ki [8] > 1.26 µM | Ki [9] > 6.31 µM | Ki [13] > 631 nM | Ki [14] > 3.98 µM | Ki [15] > 2 µM | Ki [18] > 100 nM | Ki [19] > 10 µM | Ki [20] > 5.01 µM | Ki [21] > 200 nM | Ki [23] > 3.98 µM
active: Ki [3] 251 nM | Ki [6] 2.51 µM | Ki [7] 2.51 µM | Ki [10] 200 nM | Ki [11] 6.31 µM | Ki [12] 1.26 µM | Ki [16] 2.51 µM | Ki [17] 1.26 µM | Ki [22] 631 nM
